Test results published in DBAASP.
≈ marks a conversion by molar mass, not a printed value.

Columns and labels:
Assay in all cases: ≥ marks a high value that may be exact or a test limit, other limits are often not marked, values filed in µg/mL are converted to µM
[1] = system: Staphylococcus aureus USA 300
[2] = system: Pseudomonas aeruginosa ATCC 9027
[3] = system: Staphylococcus aureus ATCC 25923
[4] = system: Escherichia coli ATCC 25922
[5] = system: Bacillus subtilis ATCC 23857
[6] = system: Klebsiella pneumoniae ATCC 700603
[7] = system: Candida albicans ATCC 90028
[8] = system: Staphylococcus aureus NCTC 8325
Escherichia coli = system: Escherichia coli
[9] = system: Staphylococcus aureus NCTC 10788
[10] = system: Klebsiella pneumoniae ATCC 13883
[11] = system: Pseudomonas aeruginosa PAO1
Staphylococcus aureus = system: Staphylococcus aureus
Micrococcus luteus = system: Micrococcus luteus
Bacillus subtilis 168 = system: Bacillus subtilis 168

Q: With `CC[C@H](C)[C@H](NC(=O)[C@H](C)NC(=O)[C@H](CCCCN)NC(=O)[C@H](C)N)C(=O)N[C@H](C(=O)N[C@@H](CCCN=C(N)N)C(=O)N[C@H](C(=O)N[C@H](C(=O)N[C@@H](CCC(=O)O)C(=O)N[C@@H](CCC(N)=O)C(=O)N[C@@H](C)C(=O)N1CCC[C@H]1C(=O)N[C@@H](CCCCN)C(=O)N[C@H](C(=O)N[C@@H](C)C(=O)N[C@@H](CCCCN)C(=O)N[C@@H](C)C(=O)N[C@@H](CCCCN)C(=O)N[C@@H](CCCCN)C(=O)N[C@@H](CO)C(=O)O)[C@@H](C)O)[C@@H](C)CC)[C@@H](C)O)C(C)C` [AKAIVRTIEQAPKTAKAKKS] as the molecule, how does the MIC [1] read?
A: ≥ 128 µM

Q: Which MIC [2] does the source give for `CC[C@H](C)[C@H](NC(=O)[C@H](CCCN=C(N)N)NC(=O)[C@H](CCCN=C(N)N)NC(=O)[C@H](C)NC(=O)[C@@H](NC(=O)[C@H](C)NC(=O)[C@H](CC(C)C)NC(=O)[C@H](CC(C)C)NC(=O)[C@H](C)NC(=O)[C@H](CCCN=C(N)N)NC(=O)[C@H](CC(C)C)NC(=O)[C@H](CC(N)=O)NC(=O)[C@@H](N)CC(C)C)C(C)C)C(=O)N[C@@H](CC(C)C)C(N)=O` [LNLRALLAVARRIL] here?
A: 8 µM (≈ 12.7 µg/mL)

Q: And the MIC [3]?
A: 4 µM (≈ 6.36 µg/mL)

Q: And the MIC [4]?
A: 4 µM (≈ 6.36 µg/mL)

Q: What about the MIC [5] of the same molecule?
A: 4 µM (≈ 6.36 µg/mL)

Q: What about the MIC [6] of the same molecule?
A: 16 µM (≈ 25.5 µg/mL)

Q: With `CC[C@H](C)[C@H](NC(=O)[C@H](CCCCN)NC(=O)CNC(=O)[C@H](Cc1ccccc1)NC(=O)[C@H](CC(C)C)NC(=O)CN)C(=O)N[C@@H](CC(C)C)C(=O)NCC(=O)N[C@H](C(=O)NCC(=O)N[C@@H](CCCCN)C(=O)N[C@@H](CCCCN)C(=O)N[C@H](C(=O)N[C@@H](CC(C)C)C(=O)N[C@H]1CSSC[C@@H](C(=O)O)NC(=O)[C@H](CCSC)NC(=O)CNC(=O)[C@H](CO)NC(=O)[C@H](CC(C)C)NC(=O)CNC1=O)C(C)C)C(C)C` [GLFGKILGVGKKVLCGLSGMC] as the molecule, how does the MIC [4] read?
A: 3 µM (≈ 6.24 µg/mL)

Q: What about the MIC [7] of the same molecule?
A: ≥ 50 µM

Q: And the MIC [8]?
A: 12.5 µM (≈ 26 µg/mL)

Q: Which MIC [4] does the source give for `CC[C@H](C)[C@H](NC(=O)CN)C(=O)N[C@H](C(=O)N[C@@H](CCCCN)C(=O)NCC(=O)N[C@H](C(=O)N[C@H](C(=O)N[C@@H](CCCCN)C(=O)N[C@@H](CCCCN)C(=O)N[C@H](C(=O)N[C@H](C(=O)N[C@@H](CCCCN)C(N)=O)[C@@H](C)CC)[C@@H](C)CC)[C@@H](C)CC)[C@@H](C)CC)[C@@H](C)CC` [GIIKGIIKKIIK] here?
A: 64 µM (≈ 84.7 µg/mL)

Q: What about the MIC [5] of the same molecule?
A: 8 µM (≈ 10.6 µg/mL)

Q: Which results are given for `CC[C@H](C)[C@H](NC(=O)CNC(=O)[C@H](C)NC(=O)[C@@H](NC(=O)[C@@H](NC(=O)CN)[C@@H](C)CC)[C@@H](C)CC)C(=O)N[C@@H](C)C(=O)N[C@H](C(=O)N[C@@H](CCCCN)C(=O)N[C@H](C(=O)N[C@@H](CCCCN)C(=O)N[C@@H](CCCCN)C(N)=O)[C@@H](C)CC)[C@@H](C)CC` [GIIAGIAIKIKK]?
A: MIC [4]: 64 µM (≈ 78.3 µg/mL); MIC [5]: ≥ 32 µM

Q: Which MIC [2] does the source give for `CC[C@H](C)[C@H](NC(=O)[C@H](CCCCN)NC(=O)[C@H](CCCCN)NC(=O)[C@H](C)NC(=O)[C@@H](NC(=O)[C@H](CCCCN)NC(=O)[C@H](CC(C)C)NC(=O)[C@H](CC(C)C)NC(=O)[C@H](CCCCN)NC(=O)[C@H](CCCCN)NC(=O)[C@H](CC(C)C)NC(=O)[C@H](CC(N)=O)NC(=O)[C@@H](N)CC(C)C)C(C)C)C(=O)N[C@@H](CC(C)C)C(N)=O` [LNLKKLLKVAKKIL] here?
A: 4 µM (≈ 6.48 µg/mL)

Q: And the MIC [3]?
A: 16 µM (≈ 25.9 µg/mL)

Q: And the MIC [4]?
A: 8 µM (≈ 13 µg/mL)

Q: And the MIC [5]?
A: 4 µM (≈ 6.48 µg/mL)

Q: And the MIC [6]?
A: 8 µM (≈ 13 µg/mL)

Q: With `CC[C@H](C)[C@@H]1NC(=O)[C@H](C)NC(=O)[C@@H](NC(=O)[C@H](Cc2ccccc2)NC(=O)[C@@H](NC(=O)[C@H](CCCCN)NC(=O)[C@H](CO)NC(=O)[C@H](Cc2ccccc2)NC(=O)[C@@H](NC(=O)[C@H](CCCCN)NC(=O)[C@H](C)NC(=O)[C@H](C)NC(=O)[C@@H](NC(=O)[C@H](CO)NC(=O)[C@H](C)NC(=O)[C@@H](NC(=O)[C@@H](NC(=O)[C@@H]2CCCN2C(=O)[C@H](CC(C)C)NC(=O)[C@@H](N)Cc2ccccc2)[C@@H](C)CC)[C@@H](C)CC)C(C)C)C(C)C)[C@@H](C)CC)CSSC[C@@H](C(=O)O)NC(=O)[C@H](CCCCN)NC(=O)[C@H](CCCCN)NC(=O)[C@H](CO)NC1=O` [FLPIIASVAAKVFSKIFCAISKKC] as the molecule, how does the MIC [4] read?
A: 5 µM (≈ 12.9 µg/mL)

Q: And the MIC [7]?
A: 7 µM (≈ 18.1 µg/mL)

Q: What about the MIC [8] of the same molecule?
A: 7 µM (≈ 18.1 µg/mL)

Q: With `CC[C@H](C)[C@H](NC(=O)[C@H](CCCCN)NC(=O)[C@H](CCCCN)NC(=O)[C@H](C)NC(=O)[C@@H](NC(=O)[C@H](C)NC(=O)[C@H](C)NC(=O)[C@H](CC(C)C)NC(=O)[C@H](C)NC(=O)[C@H](CCCCN)NC(=O)[C@H](CC(C)C)NC(=O)[C@H](CC(N)=O)NC(=O)[C@@H](N)CC(C)C)C(C)C)C(=O)N[C@@H](CC(C)C)C(N)=O` [LNLKALAAVAKKIL] as the molecule, how does the MIC [3] read?
A: 16 µM (≈ 23.4 µg/mL)

Q: What about the MIC [5] of the same molecule?
A: 8 µM (≈ 11.7 µg/mL)

Q: And the MIC (Escherichia coli)?
A: 8 µM (≈ 11.7 µg/mL)

Q: What about the MIC [6] of the same molecule?
A: 16 µM (≈ 23.4 µg/mL)

Q: How did the MIC [4] turn out when `CC[C@H](C)[C@H](NC(=O)CN)C(=O)N[C@@H](Cc1ccccc1)C(=O)N[C@@H](CC(N)=O)C(=O)N[C@H](C(=O)N[C@@H](Cc1ccccc1)C(=O)N[C@@H](CCCCN)C(=O)NCC(=O)N[C@@H](C)C(=O)N[C@@H](CC(C)C)C(=O)N[C@@H](CCCCN)C(=O)N[C@H](C(=O)N[C@@H](C)C(=O)NCC(=O)N[C@@H](CCCCN)C(=O)N[C@@H](Cc1cnc[nH]1)C(=O)N[C@H](C(=O)N[C@@H](C)C(=O)NCC(=O)N[C@@H](CO)C(=O)N[C@@H](CC(C)C)C(=O)N[C@@H](CC(C)C)C(=O)N[C@@H](CC(N)=O)C(=O)N[C@@H](CCC(N)=O)C(=O)N[C@@H](CC(C)C)C(=O)N[C@@H](CCCCN)C(=O)N[C@H]1CSSC[C@@H](C(=O)O)NC(=O)[C@H](CCC(=O)O)NC(=O)CNC(=O)[C@H](CO)NC(=O)[C@H](C(C)C)NC(=O)[C@H](CCCCN)NC1=O)C(C)C)[C@@H](C)O)C(C)C` [GIFNVFKGALKTAGKHVAGSLLNQLKCKVSGEC] was run?
A: 4 µM (≈ 13.7 µg/mL)

Q: And the MIC [7]?
A: ≥ 40 µM

Q: And the MIC [8]?
A: 9 µM (≈ 30.8 µg/mL)

Q: With `CC[C@H](C)[C@H](NC(=O)[C@@H](NC(=O)[C@@H]1CCCN1C(=O)[C@H](CC(C)C)NC(=O)[C@@H](N)Cc1ccccc1)C(C)C)C(=O)N[C@@H](C)C(=O)NCC(=O)N[C@@H](CC(C)C)C(=O)N[C@@H](CC(C)C)C(=O)N[C@@H](CO)C(=O)N[C@@H](CCCCN)C(=O)N[C@@H](CC(C)C)C(=O)N[C@@H](Cc1ccccc1)C(N)=O` [FLPVIAGLLSKLF] as the molecule, how does the MIC [9] read?
A: 8 µM (≈ 11.3 µg/mL)

Q: And the MIC [8]?
A: 8 µM (≈ 11.3 µg/mL)

Q: With `CC(C)C[C@H](NC(=O)[C@H](CC(C)C)NC(=O)[C@H](CCCCN)NC(=O)CNC(=O)[C@H](CC(C)C)NC(=O)[C@H](CC(C)C)NC(=O)[C@H](CO)NC(=O)[C@H](CC(C)C)NC(=O)[C@H](CC(C)C)NC(=O)[C@H](CC(C)C)NC(=O)[C@H](CO)NC(=O)[C@H](CC(C)C)NC(=O)CN)C(N)=O` [GLSLLLSLLGKLL] as the molecule, how does the MIC [4] read?
A: > 25 µM

Q: What about the MIC [1] of the same molecule?
A: 1.6 µM (≈ 2.14 µg/mL)

Q: What about the MIC [10] of the same molecule?
A: 25 µM (≈ 33.5 µg/mL)

Q: What about the MIC [11] of the same molecule?
A: > 25 µM

Q: For `CC[C@H](C)[C@H](NC(=O)[C@H](CCCCN)NC(=O)[C@H](CC(=O)O)NC(=O)[C@H](CC(C)C)NC(=O)[C@H](C)NC(=O)[C@H](CO)NC(=O)[C@H](C)NC(=O)[C@H](CC(C)C)NC(=O)[C@H](CC(C)C)NC(=O)[C@H](CC(N)=O)NC(=O)[C@H](CCCCN)NC(=O)[C@H](C)NC(=O)[C@H](C)NC(=O)CNC(=O)[C@H](CCCCN)NC(=O)[C@H](Cc1ccccc1)NC(=O)[C@@H](NC(=O)[C@H](CC(=O)O)NC(=O)[C@H](CCSC)NC(=O)[C@H](CC(C)C)NC(=O)CN)C(C)C)C(=O)N[C@@H](CCCN=C(N)N)C(=O)N[C@H]1CSSC[C@@H](C(=O)O)NC(=O)[C@H](CCCCN)NC(=O)[C@H]([C@@H](C)O)NC(=O)[C@H](C(C)C)NC(=O)[C@H](CCCCN)NC1=O` [GLMDVFKGAAKNLLASALDKIRCKVTKC], which MIC [4] is on record?
A: 13 µM (≈ 38.9 µg/mL)

Q: And the MIC [7]?
A: ≥ 100 µM

Q: What about the MIC [8] of the same molecule?
A: ≥ 100 µM

Q: What does the source list for `CC(C)C[C@H](NC(=O)[C@H](CC(=O)O)NC(=O)[C@H](CC(N)=O)NC(=O)[C@H](C)NC(=O)[C@H](CC(N)=O)NC(=O)[C@H](CC(=O)O)NC(=O)[C@@H](N)C(C)C)C(=O)N[C@@H](CC(C)C)C(=O)N[C@@H](CO)C(=O)N[C@@H](CCCCN)C(=O)N[C@H](C(=O)N[C@@H](CCCCN)C(=O)N[C@@H](CCCCN)C(=O)N[C@@H](CC(=O)O)C(=O)N[C@@H](CCCCN)C(=O)N[C@@H](CO)C(=O)N[C@@H](CC(=O)O)C(=O)O)C(C)C` [VDNANDLLSKVKKDKSD]?
A: MIC (Staphylococcus aureus): 8.26 µM (≈ 15.6 µg/mL); MIC [4]: 4.39 µM (≈ 8.3 µg/mL); MIC (Micrococcus luteus): 4.39 µM (≈ 8.3 µg/mL); MIC (Bacillus subtilis 168): 1.11 µM (≈ 2.1 µg/mL)

Q: For `CC[C@H](C)[C@H](NC(=O)CNC(=O)[C@H](CC(C)C)NC(=O)[C@H](CO)NC(=O)[C@H](CCC(=O)O)NC(=O)[C@H](CCSC)NC(=O)[C@H](CCCCN)NC(=O)[C@H](C)NC(=O)[C@H](CCCCN)NC(=O)[C@H](CC(=O)O)NC(=O)[C@@H](NC(=O)[C@@H](N)C(C)C)[C@@H](C)CC)C(=O)N[C@H](C(=O)N[C@@H](CO)C(=O)N[C@@H](CCCN=C(N)N)C(=O)N[C@@H](CC(=O)O)C(=O)N[C@H](C(=O)N[C@H](C(=O)O)[C@@H](C)O)[C@@H](C)O)[C@@H](C)O` [VIDKAKMESLGITSRDTT], which MIC (Staphylococcus aureus) is on record?
A: 15.9 µM (≈ 31.2 µg/mL)

Q: What about the MIC [4] of the same molecule?
A: 15.9 µM (≈ 31.2 µg/mL)

Q: And the MIC (Micrococcus luteus)?
A: 7.94 µM (≈ 15.6 µg/mL)

Q: And the MIC (Bacillus subtilis 168)?
A: 7.94 µM (≈ 15.6 µg/mL)
